Like-named read-outs stand apart in the source and are kept apart here. Blank lines part the entries; values can stand above or below the compound they belong to.
Tests used:
[1] = recognised property; in words; cited from earlier work
[2] = physchem; format: physicochemical; conditions: for Kpart compared with maltol (compound and its 2:1 zinc complex): in words
Description: A good indication of the physical properties of a ligand-providing compound and of an zinc complex in this respect is provided by the value of the partition coefficient (Kpart)obtained on partition between n-octanol and Tris hydrochloride (20 mM, pH 7.4; Tris representing 2-amino-2 hydroxymethylpropane 1,3-diol) at 20° C. and expressed as the ratio (concentration in organic phase)/(concentration in aqueous phase). Preferred complexes show a value of Kpart for each ligand-providing compound of above 0.02 or 0.05 but less than 3.0, especially of above 0.2 but less than 1.0, together with a value of Kpart for the 2:1 zinc(II) complex of above 0.02 but less than 6.0, especially of 0.05 or 0.1 to 1.0. The value of Kpart for maltol is 0.66 and for the neutral 2:1 maltol:zinc complex is 0.11 which values lie in the especially preferred ranges. It will be appreciated, however, that the wide range of ligands which may be present in zinc complexes according to the present invention allows the preparation of complexes having partition coefficients lying throughout the entire ranges given. Thus, for example, a 2:1 complex having a higher partition coefficient than 0.1 may be obtained by using maltol as one ligand and another compound as the second ligand. Alternatively, higher partition coefficients may be obtained, if desired, by the use of hydroxypyrone compounds containing additional and/or larger aliphatic hydrocarbon group substituents on the ring.
Partition data on zinc complexes and on ligand-providing compounds
The partition coefficient Kpart, being the ratio (concentration in n-octanol)/(concentration in aqueous phase) on partition between n-octanol and aqueous tris hydrochloride (20 mM, pH 7.4; Tris represents 2-amino-2-hydroxymethylpropane 1,3-diol), is measured at 20° C. for zinc complexes containing various ligands and for their corresponding ligand-providing compounds as listed in Table 1. In the case of certain of the complexes the partition coefficient for the 2:1 ligand:zinc(II) complex is also measured in the presence of various amounts of the metal-free ligand-providing compound in excess of a b 1:2 zinc(II):compound ratio.
In each case, the material is dissolved initially in the aqueous Tris hydrochloride at a concentration of 10^-4 M in relation to zinc. The zinc complexes radiolabelled with ^65 Zn are prepared in situ in the buffer by the addition of ^65 Zn labelled ZnCl2 to an appropriate amount of the metal-free ligand-providing compound and subsequent adjustment of the pH to 7.4 by the addition of Tris free base. Acid washed glassware is used throughout and, following mixing of 5 ml of the 10^-4 M aqueous solution with 5 ml of n-octanol for 1 minute, the aqueous n-octanol mixture is centrifuged at 1,000 g for 30 seconds. […]

[3] = tested on: human erythrocytes; format: in vitro ADME; conditions: not told
Description: The zinc complex was formed in situ in the buffered solution using ^65 Zn labelled ZnSO4 at a concentration of 0.25 mM together with maltol or ethylpyromeconic acid in a molar ratio of zinc:compound of 1:0, 1:2, 1:5, 1:10 or 1:20, i.e. the concentration of the ligand-providing compound being 0, 0.5, 1.25, 2.5 or 5 mM, respectively. The proportions of 1:2, 1:5, 1:10 and 1:20 provide an increasing amount of the neutral 2:1 zinc(II) complex together with varying amounts of the free compound as explained in Example 4, a small amount of Tris free base (to about 2 mM) being added to avoid an acid pH on reaction to form the complex.
It will be seen that the uptake increases with an increase in the amount of free compound present as the proportion of zinc present as the 2:1 ligand:zinc(II) complex is increased through the mass action effect.

[4] = tested on: inverted rat jejunal sac; format: in vitro ADME, rat (male Sprague Dawley); conditions: 37° C., up to 1 hour, Krebs Ringer buffer
Description: In the case of the hydroxypyrone ligands it will be seen that the uptake again increases with the increase in the amount of free compound which is present as a result of an increase in the amount of the 2:1 complex which is present.

[5] = tested on: everted rat jejunum
[6] = in words
[7] = tested on: apotransferrin; assay: Ability of zinc complexes to donate zinc to apotransferrin; format: biochemical; conditions: apotransferrin 10^-4 M, ZnSO4 10^-4 M with 10 molar proportion of maltol, pH 7.4, 37° C., 10 minutes
Description: Apotransferrin (10^-4 M) and the ^65 Zn radiolabelled zinc complex of maltol (the complex being prepared in situ in the buffer using ^65 Zn radiolabelled ZnSO4 at a concentration of 10^-4 M and a 10 molar proportion of maltol) were incubated together in Tris hydrochloride (50 mM, buffered to pH 7.4) at 37° C. for 10 minutes when a 1 ml aliquot was removed from the medium and added to a PD10 column. 0.5 ml fractions were collected directly into scintillation vials for counting.

Compound: O=S(=O)([O-])[O-].[Zn+2] [zinc sulphate]
emetic property [1]: recognised emetics

Compound: Cc1occc(=O)c1O [maltol, 3-hydroxy-2-methyl-4-pyrone, reference compound]
Free compound Kpart ([2]; free ligand-providing compound, n-octanol/Tris hydrochloride 20 mM pH 7.4, 20° C.): 0.66

Compound: CCn1cccc(O)c1=O.[Zn] [zinc 1-ethyl-3-hydroxypyrid-2-one]
Uptake of zinc into serosal compartment of rat jejunal sac ([4]; Zinc:compound 1:2): 36.4 n. mole
Uptake of zinc into serosal compartment of rat jejunal sac ([4]; Zinc:compound 1:10): 24.2 n. mole

Compound: CC(=O)[O-].CC(=O)[O-].[Zn+2] [zinc acetate]
emetic property [1]: recognised emetics

Continued, in another order:

Kpart compared with maltol (compound and its 2:1 zinc complex) [2]: higher than those for maltol
uptake of the 2:1 complex in tests on the permeation of erythrocytes [3]: greater uptake
Compound: CCc1occc(=O)c1[O-].CCc1occc(=O)c1[O-].[Zn+2] [zinc ethylpyromeconic acid]

inhibition of the uptake of zinc [5]: no inhibition on the uptake of zinc
lability [6]: extremely labile
Compound: Cc1occc(=O)c1O.[Zn] [zinc maltol]
zinc removed from the zinc complex [7]: over 95%

Kpart compared with maltol (compound and its 2:1 zinc complex) [2]: higher than those for maltol
logD ([2]; n-octanol/tris buffer, pH 7.4): -0.125
Compound: CCc1occc(=O)c1O [ethylpyromeconic acid, 2-ethyl-3-hydroxy-4-pyrone, reference compound]

permeation [5]: little permeation occurs
Compound: [Zn+2] [zinc]
non-specific binding to the mucosal surface [5]: rapidly removed from the incubation medium by binding to the mucosal surface

Source: US4665064A, “Pharmaceutical compositions and methods for increasing zinc levels” (National Research Development Corporation, priority 1983, dated 1987)
